# Reference: US20250304537A1 (Repare Therapeutics Inc., priority 2022, published 2025)
# Read-outs that look alike come from different tables or passages of the source.
# Key:
# [1] = molecular target: recombinant human Myt1 (full length PKMYT1) (Homo sapiens (Human), UniProt Q99640); test: Recombinant human Myt1 kinase assay (ADP-Glo); assay type: biochemical; details: 10 μM ATP
# Method: Detection of Myt1 kinase activity utilized a recombinant human Myt1 kinase assay measuring the hydrolysis of ATP using a commercially available ADP-Glo Assay (ADP-Glo™ Kinase Assay from Promega, 10 000 assays, #V9102). Briefly, 5 μL recombinant human Myt1 (full length PKMYT1 recombinant human protein expressed in insect cells from Thermo Fisher #A33387; ˜80% purity) was prepared in reaction buffer (70 mM HEPES, 3 mM MgCl2, 3 mM MnCl2, 50 μg/ml PEG 20000, 3 μM Na-orthovanadate, 1.2 mM DTT) and added to 384 well white polystyrene, flat bottom well, non-treated, microplate (Corning #3572). After this, 5 μL of compounds (diluted in reaction buffer to 0.5% DMSO) was added to the microplate and the plate was spun briefly and incubated at 22° C. for 15 minutes. Ultra-Pure Adenosine Triphosphate (ATP) solution (ADP-Glo kit from Promega) was diluted in reaction buffer and 5 μL was added to the microplate, spun down briefly and incubated for 60 minutes at 30° C. The final Myt1 enzyme concentration was 18 nM and the final ATP concentration was 10 μM. After the 60-minute incubation, 15 μL of ADP-Glo reagent was added and the plate was spun briefly and sealed and incubated in the dark for 40 minutes at 22° C. Following this, 30 μL of kinase detection reagent was added per well and the plate was spun briefly, sealed and incubated for 45-60 minutes at 22° C. in the dark. Luminescence was read using the Envision (250 ms integration). The IC50 and the % max inhibition were calculated for each inhibitor compound tested.
# [2] = test system: PKMYT1 (CDK1 pThr14) in FUOV1 cells; test: PKMYT1 cell-based activity assay, CDK1 pThr14 AlphaLISA in FUOV1 cells; details: read-out: FUOV-1 CDK1 pThr14 IC50
# Summary of the method: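 IC50 was derived from AlphaLISA signal (excitation 680 nm, emission 615 nm) for phospho-Thr14 CDK1 in lysates. The detection antibodies were rabbit anti-pThr14 and mouse anti-total CDK1, each at 5 nM. FUOV1 ovarian cells were exposed to compound for 2 hours before lysis.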
# Sequence of recombinant human Myt1 (full length PKMYT1) (Q99640 whole entry): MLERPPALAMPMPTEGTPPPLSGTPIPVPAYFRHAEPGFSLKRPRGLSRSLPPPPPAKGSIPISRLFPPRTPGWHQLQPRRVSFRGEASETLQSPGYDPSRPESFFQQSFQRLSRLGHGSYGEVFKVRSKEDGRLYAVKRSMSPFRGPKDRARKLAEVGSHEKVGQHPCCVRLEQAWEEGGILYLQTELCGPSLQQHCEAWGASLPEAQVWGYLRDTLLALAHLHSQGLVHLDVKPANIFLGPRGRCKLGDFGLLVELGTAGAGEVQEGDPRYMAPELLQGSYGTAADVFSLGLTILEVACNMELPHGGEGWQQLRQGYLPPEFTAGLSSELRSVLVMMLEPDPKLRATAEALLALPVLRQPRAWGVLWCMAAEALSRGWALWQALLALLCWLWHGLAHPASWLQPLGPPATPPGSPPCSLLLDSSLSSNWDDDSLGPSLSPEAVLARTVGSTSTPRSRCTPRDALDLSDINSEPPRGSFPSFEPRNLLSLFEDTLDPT
structure (smiles),measurement,setting,value
"Cc1ccc2[nH]ncc2c1-c1cc(-c2ccnc(N[C@@H](CO)c3ccccc3)n2)nc(C(N)=O)c1N (atropisomer, axis not shown) [Compound 362]",IC50,[1],0.002 µM
Cc1ccc2[nH]ncc2c1-c1cc(-c2ccnc(OC3COC3)n2)nc(C(N)=O)c1N [Compound 176],IC50,[1],0.77 µM
Cc1ccccc1-c1nc(C(N)=O)c(N)c(-c2cc(O)ccc2C)n1 [Compound 31],IC50,[1],0.341 µM
Cc1ccc(O)c(C)c1-c1cc(-c2ccnnc2)cc(C(N)=O)c1N [Compound 149],IC50,[1],0.735 µM
CO[C@@H](COc1cccc(-c2nc(C(N)=O)c(N)c(-c3c(C)ccc4[nH]ncc34)n2)c1)c1ccccc1 [Compound 354],IC50,[1],0.293 µM
"Cc1ccc2[nH]ncc2c1-c1cc(-c2ccnc(OC3CCOCC3)n2)nc(C(N)=O)c1N (atropisomer, axis not shown) [Compound 231]",IC50,[1],0.231 µM
Cc1ccc2[nH]ncc2c1-c1cc(-c2ccnc(OCc3nc4ccccc4n3C)n2)nc(C(N)=O)c1N [Compound 336],IC50,[1],0.065 µM
"Cc1ccc(O)cc1-c1c(N)c(C(N)=O)nc2ccccc12 [Compound 10, 3-amino-4-(5-hydroxy-2-methylphenyl)quinoline-2-carboxamide]",IC50,[1],0.202 µM
Cc1ccc2[nH]ncc2c1-c1cc(-c2ccnc(N3CC[C@H](O)C3)n2)nc(C(N)=O)c1N [Compound 348],IC50,[1],0.015 µM
"Cc1c(-c2ccccn2)nc(C(N)=O)c(N)c1-c1cccc2[nH]ncc12 [Compound 246, 5-amino-4-(1H-indazol-4-yl)-3-methyl-[2,2′-bipyridine]-6-carboxamide]",IC50,[1],0.72 µM
Cc1ccc2n[nH]cc2c1-c1cc(-c2cccc(OC[C@@H](N)c3ccccc3)n2)nc(C(N)=O)c1N [Compound 277],IC50,[1],0.162 µM
Cc1ccc2[nH]ncc2c1-c1nc(-c2cccc(C=O)c2)nc(C(N)=O)c1N [Compound 304],IC50,[1],0.027 µM
Cc1ccc2[nH]ncc2c1-c1cc(-c2cccc(OCC(N)C(F)(F)F)n2)nc(C(N)=O)c1N (centres unmarked) [Compound 355],IC50,[1],0.007 µM
Cc1ccc2[nH]ncc2c1-c1cc(-c2ccnc(OCCc3ccncn3)n2)nc(C(N)=O)c1N [Compound 311],IC50,[1],> 2 µM
NC(=O)c1nc(-c2ccnnc2)cc(-c2c(Cl)ccc3[nH]ncc23)c1N [Compound 106],IC50,[1],0.028 µM
"Cc1ccc(O)c(C)c1-c1cc(C(=O)O)nc(C(N)=O)c1N [Compound 53, 5-amino-6-carbamoyl-4-(3-hydroxy-2,6-dimethylphenyl)picolinic acid]",IC50,[1],1.83 µM
Cc1ccc2[nH]ncc2c1-c1cc(-c2ccnc(N[C@H]3CC[C@H](O)CC3)n2)nc(C(N)=O)c1N [Compound 369],IC50,[1],0.004 µM
Cc1ccc2[nH]ncc2c1-c1cc(-c2ccnc(OCCOCCN(C)C)n2)nc(C(N)=O)c1N [Compound 192],IC50,[1],0.025 µM
Cc1ccc2[nH]ncc2c1-c1cc(-c2cnc(C(C)(C)O)s2)nc(C(N)=O)c1N [Compound 218],IC50,[1],0.23 µM
Cc1ccc2[nH]ncc2c1-c1nc(-c2cccc(C(C)(C)C#N)c2)nc(C(N)=O)c1N [Compound 126],IC50,[1],0.027 µM
COc1cc(-c2nc(C(N)=O)c(N)c(-c3cc(O)ccc3C)n2)ccn1 [Compound 25],IC50,[1],0.015 µM
Cc1ccc2[nH]ncc2c1-c1cc(-c2cccc(OC[C@H]3CCCO3)n2)nc(C(N)=O)c1N [Compound 356],IC50,[1],0.009 µM
Cc1ccc2[nH]ncc2c1-c1cc(-c2ccnc(N3CCC(O)CC3)n2)nc(C(N)=O)c1N [Compound 359],IC50,[1],0.004 µM
Cc1ccc(O)cc1-c1nc(-c2cc(F)cc(F)c2)nc(C(N)=O)c1N [Compound 22],IC50,[1],0.018 µM
Cc1ccc(O)cc1-c1nc(-c2ccn(C)c(=O)c2)nc(C(N)=O)c1N [Compound 36],IC50,[1],0.092 µM
"NC(=O)c1nc(-c2cccnc2)cc(-c2c(C(F)F)ccc3[nH]ncc23)c1N [Compound 321, 5-amino-4-(5-(difluoromethyl)-1H-indazol-4-yl)-[2,3′-bipyridine]-6-carboxamide]",IC50,[1],> 2 µM
Cc1cc(F)c2[nH]ncc2c1-c1nc(-c2cccnc2NCC(F)(F)F)nc(C(N)=O)c1N [Compound 872],IC50,"[2]; 2 h, 2 hours with compound",0.147 µM
"Cc1ccc2[nH]ncc2c1-c1cc2c(oc3ccc(NC4CCOCC4)nc32)c(C(N)=O)c1N (atropisomer, axis not shown) [Compound 762]",IC50,[2]; 2 h compound incubation,0.024 µM
Cc1cc(F)c2[nH]ncc2c1-c1nc(-c2cc(F)cnc2N[C@H]2CC[C@@](C)(O)CC2)nc(C(N)=O)c1N [Compound 875],IC50,"[2]; 2 h, 2 hours with compound",0.17 µM
Cc1cccc(Nc2ncccc2-c2nc(C(N)=O)c(N)c(-c3c(C)ccc4[nH]ncc34)n2)c1 [Compound 634],IC50,"[2]; 2 h, 2 h compound incubation",0.569 µM
Cc1ccc(F)c(Nc2ncccc2-c2nc(C(N)=O)c(N)c(-c3c(C)c(F)cc4[nH]ncc34)n2)n1 [Compound 749],IC50,"[2]; 2 h, 2 h compound incubation",0.006 µM
Cc1ccc2[nH]ncc2c1-c1nc(-c2ccc(C(F)F)nc2Nc2ncccn2)nc(C(N)=O)c1N [Compound 928],IC50,"[2]; 2 h, 2 hours with compound",0.144 µM
Cc1ccc2[nH]ncc2c1-c1nc(-c2ccc(F)cc2Nc2ncnc(C)c2C#N)nc(C(N)=O)c1N [Compound 639],IC50,"[2]; 2 h, 2 h compound incubation",0.121 µM
Cc1ccc2[nH]ncc2c1-c1nc(-c2cc(F)cnc2N[C@H]2CC[C@@H](O)C2)nc(C(N)=O)c1N [Compound 797],IC50,"[2]; 2 h, 2 hours with compound",0.048 µM
Cc1ccc2[nH]ncc2c1-c1nc(-c2cc(F)cnc2N[C@H]2C[C@@H]3CC[C@H]2O3)nc(C(N)=O)c1N [Compound 899],IC50,"[2]; 2 h, 2 hours with compound",0.033 µM
Cc1cc(Nc2cc(F)ccc2-c2nc(C(N)=O)c(N)c(-c3c(C)ccc4[nH]ncc34)n2)cc(C#N)n1 [Compound 586],IC50,"[2]; 2 h, 2 h compound incubation",0.075 µM
Cc1ccnc(Nc2c(C)cccc2-c2nc(C(N)=O)c(N)c(-c3c(C)ccc4[nH]ncc34)n2)n1 [Compound 775],IC50,"[2]; 2 h, 2 h compound incubation",2.6 µM
Cc1ccc2[nH]ncc2c1-c1nc(-c2cc(F)cnc2N[C@H]2CCOC[C@@H]2O)nc(C(N)=O)c1N [Compound 801],IC50,"[2]; 2 h, 2 hours with compound",> 10 µM
Cc1cccc(-c2nc(C(N)=O)c(N)c(-c3c(C)ccc4[nH]ncc34)n2)c1Nc1ncccn1 [Compound 774],IC50,"[2]; 2 h, 2 h compound incubation",0.563 µM
Cc1ccc(-c2nc(C(N)=O)c(N)c(-c3c(C)ccc4[nH]ncc34)n2)c(N[C@H]2C[C@@](C)(O)C2)n1 [Compound 956],IC50,"[2]; 2 h, 2 hours with compound",0.092 µM
COc1ccc(-c2nc(C(N)=O)c(N)c(-c3c(C)ccc4[nH]ncc34)n2)c(Nc2ncccn2)c1 [Compound 636],IC50,"[2]; 2 h, 2 h compound incubation",0.097 µM
Cc1ccc2[nH]ncc2c1-c1cc(-c2ccnc(OCC3(C#N)CC3)n2)nc(C(N)=O)c1N [Compound 324],IC50,"[2]; 2 h, 2 h incubation",0.303 µM
Cc1ccc2[nH]ncc2c1-c1nc(-c2cc(F)cnc2NC2CC(F)(F)C2)nc(C(N)=O)c1N [Compound 678],IC50,"[2]; 2 h, 2 h compound incubation",0.031 µM
"Cc1ccnc(Nc2ncccc2-c2nc(C(N)=O)c(N)c(-c3c(C)ccc4[nH]ncc34)n2)n1 [Compound 565, 5-amino-6-(5-methyl-1H-indazol-4-yl)-2-(2-((4-methylpyrimidin-2-yl)amino)pyridin-3-yl)pyrimidine-4-carboxamide]",IC50,"[2]; 2 h, 2 h compound incubation",0.071 µM
Cc1cccnc1Nc1cc(F)ccc1-c1nc(C(N)=O)c(N)c(-c2c(C)ccc3[nH]ncc23)n1 [Compound 671],IC50,"[2]; 2 h, 2 h compound incubation",0.164 µM
Cc1ccc2[nH]ncc2c1-c1nc(-c2ccc(F)cc2N[C@H]2C[C@H](O)C2)nc(C(N)=O)c1N [Compound 906],IC50,"[2]; 2 h, 2 hours with compound",0.051 µM
"Cc1ccc2[nH]ncc2c1-c1nc(-c2cc(F)ccc2Nc2cccnc2)nc(C(N)=O)c1N [Compound 519, 5-amino-2-(5-fluoro-2-(pyridin-3-ylamino)phenyl)-6-(5-methyl-1H-indazol-4-yl)pyrimidine-4-carboxamide]",IC50,"[2]; 2 h, 2 h compound incubation",0.059 µM
Cc1ccc2[nH]ncc2c1-c1nc(-c2cccnc2NC2CCN(C)C(=O)C2)nc(C(N)=O)c1N (centres unmarked) [Compound 549],IC50,"[2]; 2 h, 2 h compound incubation",1.32 µM
Cc1ccc2[nH]ncc2c1-c1nc(-c2ccccc2Nc2ncc(F)cn2)nc(C(N)=O)c1N [Compound 494],IC50,"[2]; 2 h, 2 h compound incubation",0.144 µM
Cc1ccc2[nH]ncc2c1-c1nc(-c2cccnc2N[C@H]2CC[C@@H](O)C2)nc(C(N)=O)c1N [Compound 784],IC50,"[2]; 2 h, 2 h compound incubation",0.044 µM
Cc1ccc2[nH]ncc2c1-c1nc(-c2cccnc2NC[C@@H]2CCO2)nc(C(N)=O)c1N [Compound 650],IC50,"[2]; 2 h, 2 h compound incubation",0.179 µM
Cc1ccc2[nH]ncc2c1-c1nc(-c2ccc(F)cc2Nc2ncncc2F)nc(C(N)=O)c1N [Compound 526],IC50,"[2]; 2 h, 2 h compound incubation",0.004 µM
COC(COc1nccc(-c2cc(-c3c(C)ccc4[nH]ncc34)c(N)c(C(N)=O)n2)n1)c1ccccc1 (centres unmarked) [Compound 238],IC50,"[2]; 2 h, 2 h incubation",0.092 µM
Cc1ccc(Cl)nc1Nc1nc(F)ccc1-c1nc(C(N)=O)c(N)c(-c2c(C)cc(F)c3[nH]ncc23)n1 [Compound 877],IC50,"[2]; 2 h, 2 hours with compound",0.037 µM
Cc1ccc2[nH]ncc2c1-c1nc(-c2cc(F)cnc2NC2CC(O)C2(C)C)nc(C(N)=O)c1N (centres unmarked) [Compound 823],IC50,"[2]; 2 h, 2 hours with compound",0.036 µM
[2H]C([2H])([2H])c1ccc2[nH]ncc2c1-c1nc(-c2ccc(C(F)F)nc2Nc2nc(C)ncc2F)nc(C(N)=O)c1N [Compound 973],IC50,"[2]; 2 h, 2 hours with compound",0.053 µM
